# Measurements from US10633348B2, “Methods to treat lymphoplasmacytic lymphoma” (Dana-Farber Cancer Institute, Inc., priority 2013, dated 2020).
# Tests used:
# Type in all cases: cell-based
# SRPK1 = tested on: SRPK1
# ARAF = tested on: ARAF
# EPHB2 = tested on: EPHB2
# SLK = tested on: SLK
# AurB = tested on: AurB
# PKCa, PKCb = experiment: KiNativ kinase profiling in A375 cells; conditions: Lys2, SEQ ID NO 153, 1.0 μM
# MAP3K5 = tested on: MAP3K5
# ULK3 = tested on: ULK3
# EPHB1 = tested on: EPHB1
# NEK9 = tested on: NEK9
# PI4KB = tested on: PI4KB
# JAK3 domain2 = tested on: JAK3 domain2
# MSK1 domain1 = tested on: MSK1 domain1
# NEK8 = tested on: NEK8
# PIP4K2C = tested on: PIP4K2C
# IRAKI = tested on: IRAKI
# NEK1 = tested on: NEK1
# MSK2 domain1 = tested on: MSK2 domain1
# CDK11, CDK8 = experiment: KiNativ kinase profiling in A375 cells; conditions: Lys2, SEQ ID NO 20, 1.0 μM
# MAP2K1 = tested on: MAP2K1
# VRK2 = tested on: VRK2
# MER = tested on: MER
# IKKe = tested on: IKKe
# Wnk1, Wnk2 = experiment: KiNativ kinase profiling in A375 cells; conditions: ATP Loop, SEQ ID NO 193, 1.0 μM
# CAMK4 = tested on: CAMK4
# TLK1 = tested on: TLK1
# ERK5 = tested on: ERK5
# ILK = tested on: ILK
# TBK1 = tested on: TBK1
# JAK1 domain2 = tested on: JAK1 domain2
# MET = tested on: MET
# ZC2/TNIK = tested on: ZC2/TNIK
# BARK1 = tested on: BARK1
# CLK3 = tested on: CLK3
# PHKG1 = tested on: PHKG1
# IKKa = tested on: IKKa
# FES = tested on: FES
# ACK = tested on: ACK
# PI4KA, PI4KAP2 = experiment: KiNativ kinase profiling in A375 cells; conditions: ATP, SEQ ID NO 141, 1.0 μM
# p38d, p38g = experiment: KiNativ kinase profiling in A375 cells; conditions: Lys2, SEQ ID NO 130, 1.0 μM
# [1] = tested on: ZC1/HGK, ZC2/TNIK, ZC3/MINK; experiment: KiNativ kinase profiling in A375 cells; conditions: Lys2, SEQ ID NO 198, 1.0 μM
# RSK4 domain1 = tested on: RSK4 domain1
# NEK4 = tested on: NEK4
# SGK3 = tested on: SGK3
# RIPK3 = tested on: RIPK3
# CSK = tested on: CSK
# CAMK2G = tested on: CAMK2G
# MAP3K2 = tested on: MAP3K2
# GSK3A = tested on: GSK3A
# Hck-pY410 = experiment: PhosFlow; conditions: BCWM.1, Hck-wt and Hck-mu BCWM.1 cells; 0.5 μM and 0.1 μM
smiles,measurement,setting,value
"CCN1CCN(Cc2ccc(NC(=O)c3ccc(C)c(Oc4cc(N)ncn4)c3)cc2C(F)(F)F)CC1 [(A-4), 3-((6-aminopyrimidin-4-yl)oxy)-N-(4-((4-ethylpiperazin-1-yl)methyl)-3-(trifluoromethyl)phenyl)-4-methylbenzamide]",inhibition of kinase labeling,SRPK1,−34.1%
same,inhibition of kinase labeling,ARAF,12.2%
same,inhibition of kinase labeling,EPHB2,−12.8%
same,inhibition of kinase labeling,SLK,−14.3%
same,inhibition of kinase labeling,AurB,−51.1%
same,inhibition of kinase labeling,"PKCa, PKCb",2.3%
same,inhibition of kinase labeling,MAP3K5,−30.4%
same,inhibition of kinase labeling,ULK3,−4.4%
same,inhibition of kinase labeling,EPHB1,−1.7%
same,inhibition of kinase labeling,NEK9,−1.2%
same,inhibition of kinase labeling,PI4KB,−0.2%
same,inhibition of kinase labeling,JAK3 domain2,7.7%
same,inhibition of kinase labeling,MSK1 domain1,5.7%
same,inhibition of kinase labeling,NEK8,−11.4%
same,inhibition of kinase labeling,PIP4K2C,5.2%
same,inhibition of kinase labeling,IRAKI,−3.5%
same,inhibition of kinase labeling,NEK1,−3.0%
same,inhibition of kinase labeling,MSK2 domain1,−64.9%
same,inhibition of kinase labeling,"CDK11, CDK8",50.0%
same,inhibition of kinase labeling,MAP2K1,11.4%
same,inhibition of kinase labeling,VRK2,27.9%
same,inhibition of kinase labeling,MER,49.8%
same,inhibition of kinase labeling,IKKe,−9.9%
same,inhibition of kinase labeling,"Wnk1, Wnk2",24.2%
same,inhibition of kinase labeling,CAMK4,5.9%
same,inhibition of kinase labeling,TLK1,4.9%
same,inhibition of kinase labeling,ERK5,25.9%
same,inhibition of kinase labeling,ILK,5.2%
same,inhibition of kinase labeling,TBK1,18.2%
same,inhibition of kinase labeling,JAK1 domain2,−6.2%
same,inhibition of kinase labeling,MET,−21.0%
same,inhibition of kinase labeling,ZC2/TNIK,23.9%
same,inhibition of kinase labeling,BARK1,−13.4%
same,inhibition of kinase labeling,CLK3,−52.8%
same,inhibition of kinase labeling,PHKG1,−49.0%
same,inhibition of kinase labeling,IKKa,−17.0%
same,inhibition of kinase labeling,FES,89.1%
same,inhibition of kinase labeling,ACK,4.9%
same,inhibition of kinase labeling,"PI4KA, PI4KAP2",19.3%
same,inhibition of kinase labeling,"p38d, p38g",62.5%
same,inhibition of kinase labeling,[1],19.2%
same,inhibition of kinase labeling,RSK4 domain1,27.6%
same,inhibition of kinase labeling,NEK4,1.5%
same,inhibition of kinase labeling,SGK3,−10.2%
same,inhibition of kinase labeling,RIPK3,32.6%
same,inhibition of kinase labeling,CSK,15.3%
same,inhibition of kinase labeling,CAMK2G,−23.1%
same,inhibition of kinase labeling,MAP3K2,4.2%
same,inhibition of kinase labeling,GSK3A,36.0%
"CCN1CCN(Cc2ccc(NC(=O)c3ccc(C)c(Oc4ccnc(Nc5cnn(C)c5)n4)c3)cc2C(F)(F)F)CC1 [(A-14), N-(4-((4-ethylpiperazin-1-yl)methyl)-3-(trifluoromethyl)phenyl)-4-methyl-3-((2-((1-methyl-1H-pyrazol-4-yl)amino)pyrimidin-4-yl)oxy)benzamide]",Hck phosphorylation,Hck-pY410,inhibit
